# Experimental data: US9763884B2, “Drug delivery system” (EB IP HYBRITABS B.V., priority 2011, dated 2017)
# What was measured:
# [1] = general statement in the discussion, no source given; cited from earlier work
# [2] = Pharmacokinetics of three single doses of sublingual testosterone solution in healthy premenopausal women; settings: for AUC(0-t) / Cmax / MRT / Tmax / half-life / bioavailability: female, human, in vivo; for AUC(0-t) / Cmax / MRT / Tmax / half-life: serum; for AUC(0-t) / Cmax: geometric mean (% CV); for MRT / Tmax / half-life: mean ± SD
# Procedure: All 16 subjects received each investigational drug dose once in random order. Wash-out between treatments was at least 48 h. Subjects had serial blood samples drawn via an intravenous catheter. Pharmacokinetic parameters were monitored at baseline and (at 2, 4, 6, 8, 10, 20, 30, 60, 90, 120, 180, 230 min) after dosing.
# Blood samples in the placebo condition were only measured at −5, 10, 60 and 230 min.
# For the placebo solution 0.50 ml was administered.
# The different doses were prepared by an unblinded research associate and administered by blinded research associates. The blinded research associate administered the solution into the subjects mouth under the tongue, the subjects were instructed to keep the solution sublingually for 1 minute while moving the tongue slightly to optimize absorption. After 1 minute the blinded research associate instructed the subject to swallow the solution.
# E2 was analysed by a chemiluminescence immunoassay (Siemens), the LLOQ was […]. 3α-diol-G was measured by ELISA (BioVendor), the LLOQ was 0.25 ng/mL. SHBG was measured by an electrochemiluminescent assay (ECLIA, Roche). Albumin was measured by Roche Bromocresol Green (BCG) analysis (Roche).
# The pharmacokinetic parameters were analyzed using the WinNonlin software (version 5.1). Pharmacokinetic parameters including area under the curve, t=0 till t=230 min (AUC0-230), maximum concentration (Cmax) and time to maximum concentration (tmax) were calculated based on actual and baseline corrected individual concentration time curves. AUCs were estimated using the linear trapezoidal rule. Individual pharmacokinetic parameters AUC0-230 and Cmax and corresponding dose normalized parameters were log transformed and analyzed using a mixed maximum likelihood analysis (PROC MIXED in SAS, version 9.1) including subject as a random factor and drug as a fixed effect factor. Contrasts were made of the least square means to compare the different doses. Tmax was analyzed using a Wilcoxon rank sum test. This was based on the planned times corresponding to the actual tmax to prevent bias in analysis results based on differences in sampling times.
# Subsequently, we divided the subjects into two subgroups, on the basis of their baseline SHBG levels (mean of placebo, 0.25, 0.50, 0.75 mg predose levels). This subdivision was based on a median split of the baseline SHBG levels. One group (N=8) with low SHBG levels (≦63 nmol/L) and the other group (N=8) with relatively high SHBG levels (>63 nmol/L).
# [3] = Clinical cross-over pharmacokinetic study of F1 versus F2 (testosterone and sildenafil citrate) in healthy pre-menopausal women; settings: female, human, plasma, other: sublingual, 0.5 mg
# Procedure: Sildenafil (S) and N-desmethyl-sildenafil (NDS) concentrations were determined by HPLC-MS/MS as follows.
# The human plasma samples were vortex mixed and 0.5 mL of the sample was transferred into a clean test tube to which 20 μL of an Internal Standard solution (10 ng/mL) in methanol was added and vortex mixed. Then, 4 mL Methyl-Tertiary-Butyl-Ether (MTBE) was added, tubes were capped and shaken for 10 minutes and then centrifuged for 5 minutes at 2000 rcf. The tubes were placed into a snap freezer and the bottom water layer was frozen. The supernatant was transferred into a clean tube and evaporated to dryness under a stream of nitrogen. […]
# Cmax and Tmax were read from the observed values. The half life was calculated from the unweighted linear regression of the log transformed data determined at the elimination phase of the pharmacokinetic profile. The Area Under Curve (O-last) was determined as the area under the concentration versus time curve from the first time point to last time point with measurable drug concentration with a linear/log-linear trapezoidal model. The AUC (0-∞) was determined by extrapolation from the time point where the last measurable drug concentration (Cp) occurred to time infinity. […] Tlag was determined as the first time point with a measurable concentration.
# The calculated concentrations were used for PK calculations.
# [4] = 0.25 mg, free testosterone, 0.25 mg sublingual
# [5] = 0.25 mg, total testosterone, 0.25 mg sublingual
# [6] = 0.5 mg, free testosterone, 0.50 mg sublingual
# [7] = 0.5 mg, total testosterone, 0.50 mg sublingual
# [8] = 0.75 mg, free testosterone, 0.75 mg sublingual
# [9] = 0.75 mg, total testosterone, 0.75 mg sublingual
# [10] = subjects with high SHBG, 0.25 mg
# [11] = subjects with high SHBG, 0.50 mg
# [12] = subjects with high SHBG, 0.75 mg
# [13] = subjects with low SHBG, 0.25 mg, at 20 min after dosing
# [14] = subjects with low SHBG, 0.50 mg, at 20 min after dosing
# [15] = subjects with low SHBG, 0.75 mg, at 20 min after dosing
smiles,measurement,setting,value
"C[C@]12CC[C@H]3[C@@H](CCC4=CC(=O)CC[C@@]43C)[C@@H]1CC[C@@H]2O [Testosterone, testosterone]",T1/2 of free testosterone (rapidly metabolized),[1],10 min
same,time at which serum free and total testosterone levels peaked,"[2]; all three doses (0.25, 0.50, 0.75 mg) sublingual",15 min
same,AUC(0-t),"[2]; 0.25 mg, Baseline corrected AUC 0-230, free testosterone, 0.25 mg sublingual",0.0158 ng·h/mL
same,AUC(0-t),"[2]; 0.25 mg, Baseline corrected AUC 0-230, total testosterone, 0.25 mg sublingual",3.23 ng·h/mL
same,Cmax,[2]; [4],0.021 ng/mL
same,Cmax,[2]; [5],3.79 ng/mL
same,MRT,[2]; [4],52.6 min
same,MRT,[2]; [5],57.7 min
same,Tmax,[2]; [4],15.6 min
same,Tmax,[2]; [5],15.6 min
same,half-life,"[2]; 0.25 mg, t1/2, free testosterone, 0.25 mg sublingual",42.3 ± 14.6 min
same,half-life,"[2]; 0.25 mg, t1/2, total testosterone, 0.25 mg sublingual",49.8 ± 16 min
same,bioavailability,[2]; 0.5 mg,69%
same,AUC(0-t),"[2]; 0.5 mg, Baseline corrected AUC 0-230, free testosterone, 0.50 mg sublingual",0.0252 ng·h/mL
same,AUC(0-t),"[2]; 0.5 mg, Baseline corrected AUC 0-230, total testosterone, 0.50 mg sublingual",4.43 ng·h/mL
same,Cmax,[2]; [6],0.032 ng/mL
same,Cmax,[2]; [7],5.31 ng/mL
same,MRT,[2]; [6],57.1 min
same,MRT,[2]; [7],55.6 min
same,Tmax,[2]; [6],14.4 min
same,Tmax,[2]; [7],15.1 min
same,half-life,"[2]; 0.5 mg, t1/2, free testosterone, 0.50 mg sublingual",55.7 ± 27.5 min
same,half-life,"[2]; 0.5 mg, t1/2, total testosterone, 0.50 mg sublingual",49.7 ± 22.4 min
same,bioavailability,[2]; 0.75 mg,58%
same,AUC(0-t),"[2]; 0.75 mg, Baseline corrected AUC 0-230, free testosterone, 0.75 mg sublingual",0.0312 ng·h/mL
same,AUC(0-t),"[2]; 0.75 mg, Baseline corrected AUC 0-230, total testosterone, 0.75 mg sublingual",5.62 ng·h/mL
same,Cmax,[2]; [8],0.043 ng/mL
same,Cmax,[2]; [9],6.73 ng/mL
same,MRT,[2]; [8],51.4 min
same,MRT,[2]; [9],59.5 min
same,Tmax,[2]; [8],12.8 min
same,Tmax,[2]; [9],14.3 min
same,half-life,"[2]; 0.75 mg, t1/2, free testosterone, 0.75 mg sublingual",51.1 ± 26.4 min
same,half-life,"[2]; 0.75 mg, t1/2, total testosterone, 0.75 mg sublingual",58.5 ± 24.6 min
same,influence on 3α-diol-G concentrations,"[2]; increasing doses, t=0, 60, 120, 230",does not seem to influence
same,maximum levels of free testosterone,[2]; [10],0.018 ng/mL
same,maximum levels of total testosterone,[2]; [10],5.00 ng/mL
same,maximum levels of free testosterone,[2]; [11],0.026 ng/mL
same,maximum levels of total testosterone,[2]; [11],7.08 ng/mL
same,maximum levels of free testosterone,[2]; [12],0.034 ng/mL
same,maximum levels of total testosterone,[2]; [12],9.04 ng/mL
same,maximum levels of free testosterone,[2]; [13],0.026 ng/mL
same,maximum levels of total testosterone,[2]; [13],3.18 ng/mL
same,maximum levels of free testosterone,[2]; [14],0.039 ng/mL
same,maximum levels of total testosterone,[2]; [14],3.93 ng/mL
same,maximum levels of free testosterone,[2]; [15],0.048 ng/mL
same,maximum levels of total testosterone,[2]; [15],4.73 ng/mL
same,tolerability,[2]; three doses sublingual testosterone,well tolerated
same,Tmax,[3],10 to 20 min
same,half-life,[3],~37 min
